Patent US8841460B2, “Tunable phenylacetylene hosts” (State of Oregon, acting by and through the State Board of …, priority 2011, dated 2014)

Assays:
[1] = Photoluminescence quantum yield and Stokes shift in MeCN; format: physicochemical
Method: This example describes general materials and methods used in the synthesis and characterization of exemplary host compounds. All solvents were dried over 3 Å molecular sieves unless otherwise stated. THF, Et3N, and CH2Cl2 were respectively distilled from potassium metal and CaH2 prior to use. All other materials were obtained from TCI-America, Sigma-Aldrich, Acros and Strem and used as received. ^1H and ^13C NMR spectra were recorded using a Varian Inova 300 (^1H 299.95 MHz, ^13C 75.43 MHz) or Inova 500 (^1H 500.10 MHz, ^13C 125.75 MHz) spectrometer. Chemical shifts (δ) expressed as ppm downfield from tetramethylsilane using either the residual solvent peak as an internal standard (CDCl3 ^1H, 7.27 ppm) or using CDCl3 spiked with 1% […] for the ^1H NMR spectra. For the ^13C NMR spectra the middle CDCl3 peak (δ 77.00 ppm) was used as the internal standard. Signal patterns are indicated as b, broad; s, singlet; d, doublet; t, triplet; m, multiplet. Coupling constants (J) are given in hertz. UV-Vis spectra were recorded using a Hewlett-Packard 8453 spectrophotometer and extinction coefficients are expressed in M^−1 cm^−1. Mass spectra were recorded using an Agilent 1100 Series LC/MSD. Emission spectra were recorded on a Hitachi F-4500 fluorescence spectrophotometer. Melting points were determined with a Meltemp II apparatus or a TA Instruments DSC 2920 Modulated DSC. […]

[2] = Absorption/fluorescence response upon addition of TFA; conditions: reversed by aqueous base
Text: The absorption spectra of compounds 6-8 and 10 are dominated by a characteristic pattern consisting of three peaks. There is a lack of significant spectral changes associated with conversion of diamide 8 to disulfide 10, which is not unexpected, as overall conjugation remains limited by the methylene spacer.

SMILES	Quantum Yield (PLQY) [1] [%]	Stokes Shift [1] [cm⁻¹]	spectral change upon addition of TFA [2]
CC(C)(C)c1ccc(N)c(C#Cc2cccc(C#Cc3cc(C(C)(C)C)ccc3N)n2)c1 [Dianiline 6, 2,2′-(pyridine-2,6-diylbis(ethyne-2,1-diyl))bis(4-tert-butylaniline)]	0.6	5270	
CC(C)(C)c1ccc2c(c1)C#Cc1cccc(n1)C#Cc1cc(C(C)(C)C)ccc1NC(=O)CSSCC(=O)N2 [disulfide 10]			conversion from a colorless solution with purple fluorescence to a deep yellow solution with yellow fluorescence
